Measured values reported in patent US20230167081A1, “5-AMINO-2-PIPERIDINON-3-YL-1-OXOISOINDOLINE DERIVATIVES FOR DEGRADATION OF IKZF2 DEGRADERS” (President and Fellows of Harvard College, priority 2020, published 2023).
“Also recorded” adds a separate entry of the source. Read-outs that look alike come from different tables or passages of the source.

What was measured:
[1] = molecular target: T1, IKZF2 (Homo sapiens, UniProt Q9UKS7); assay: Western blot, IKZF2 degradation in MOLM13 cells; assay type: cell-based; design: endogenous in cells; host or cells: MOLM13
Procedure: (§1) To determine the selectivity of DEG-7 and DEG-35, blotting was done for other known IMiD neo-substrates (FIG. 1A). DEG-35 degraded casein kinase 1α (CK1α), a known substrate of lenalidomide, as well as the translation termination factor GSPT1, a substrate of the IMiD CC-885, at 25 μM concentrations. To investigate whether DEG-35 could degrade IKZF2 at lower concentrations, MOLM13 cells were treated with a concentration gradient. At the lowest concentration tested (5 nM), IKZF2 and CK1a degraded, while GSPT1 levels were unperturbed.
Target sequence in this assay (Q9UKS7 whole entry): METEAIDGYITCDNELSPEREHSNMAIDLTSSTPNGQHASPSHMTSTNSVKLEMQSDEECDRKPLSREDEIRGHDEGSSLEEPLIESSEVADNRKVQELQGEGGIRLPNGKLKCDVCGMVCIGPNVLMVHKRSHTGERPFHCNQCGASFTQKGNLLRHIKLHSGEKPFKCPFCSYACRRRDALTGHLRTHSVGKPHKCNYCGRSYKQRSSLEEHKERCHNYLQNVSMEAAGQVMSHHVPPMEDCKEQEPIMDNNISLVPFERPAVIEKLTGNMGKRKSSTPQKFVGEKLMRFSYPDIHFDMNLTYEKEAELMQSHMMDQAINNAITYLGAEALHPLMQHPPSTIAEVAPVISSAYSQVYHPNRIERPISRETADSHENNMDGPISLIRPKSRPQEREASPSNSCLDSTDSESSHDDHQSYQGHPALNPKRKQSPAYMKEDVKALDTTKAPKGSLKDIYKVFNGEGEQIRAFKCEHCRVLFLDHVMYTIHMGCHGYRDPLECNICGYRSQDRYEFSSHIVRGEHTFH
Target sequence in this assay (Q96SW2 whole entry, further chain): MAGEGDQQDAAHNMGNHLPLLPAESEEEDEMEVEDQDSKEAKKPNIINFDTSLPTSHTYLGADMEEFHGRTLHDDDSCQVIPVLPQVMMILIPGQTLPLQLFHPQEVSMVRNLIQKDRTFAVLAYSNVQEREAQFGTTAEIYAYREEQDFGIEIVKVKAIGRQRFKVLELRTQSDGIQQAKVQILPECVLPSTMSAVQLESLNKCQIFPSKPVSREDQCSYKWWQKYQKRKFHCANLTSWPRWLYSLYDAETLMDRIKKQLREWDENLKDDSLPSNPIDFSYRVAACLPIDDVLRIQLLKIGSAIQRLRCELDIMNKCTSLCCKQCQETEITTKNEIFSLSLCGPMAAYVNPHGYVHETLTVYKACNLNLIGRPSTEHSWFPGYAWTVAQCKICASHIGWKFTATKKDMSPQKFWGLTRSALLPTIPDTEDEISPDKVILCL
Target sequence in this assay (Q16531 whole entry partner): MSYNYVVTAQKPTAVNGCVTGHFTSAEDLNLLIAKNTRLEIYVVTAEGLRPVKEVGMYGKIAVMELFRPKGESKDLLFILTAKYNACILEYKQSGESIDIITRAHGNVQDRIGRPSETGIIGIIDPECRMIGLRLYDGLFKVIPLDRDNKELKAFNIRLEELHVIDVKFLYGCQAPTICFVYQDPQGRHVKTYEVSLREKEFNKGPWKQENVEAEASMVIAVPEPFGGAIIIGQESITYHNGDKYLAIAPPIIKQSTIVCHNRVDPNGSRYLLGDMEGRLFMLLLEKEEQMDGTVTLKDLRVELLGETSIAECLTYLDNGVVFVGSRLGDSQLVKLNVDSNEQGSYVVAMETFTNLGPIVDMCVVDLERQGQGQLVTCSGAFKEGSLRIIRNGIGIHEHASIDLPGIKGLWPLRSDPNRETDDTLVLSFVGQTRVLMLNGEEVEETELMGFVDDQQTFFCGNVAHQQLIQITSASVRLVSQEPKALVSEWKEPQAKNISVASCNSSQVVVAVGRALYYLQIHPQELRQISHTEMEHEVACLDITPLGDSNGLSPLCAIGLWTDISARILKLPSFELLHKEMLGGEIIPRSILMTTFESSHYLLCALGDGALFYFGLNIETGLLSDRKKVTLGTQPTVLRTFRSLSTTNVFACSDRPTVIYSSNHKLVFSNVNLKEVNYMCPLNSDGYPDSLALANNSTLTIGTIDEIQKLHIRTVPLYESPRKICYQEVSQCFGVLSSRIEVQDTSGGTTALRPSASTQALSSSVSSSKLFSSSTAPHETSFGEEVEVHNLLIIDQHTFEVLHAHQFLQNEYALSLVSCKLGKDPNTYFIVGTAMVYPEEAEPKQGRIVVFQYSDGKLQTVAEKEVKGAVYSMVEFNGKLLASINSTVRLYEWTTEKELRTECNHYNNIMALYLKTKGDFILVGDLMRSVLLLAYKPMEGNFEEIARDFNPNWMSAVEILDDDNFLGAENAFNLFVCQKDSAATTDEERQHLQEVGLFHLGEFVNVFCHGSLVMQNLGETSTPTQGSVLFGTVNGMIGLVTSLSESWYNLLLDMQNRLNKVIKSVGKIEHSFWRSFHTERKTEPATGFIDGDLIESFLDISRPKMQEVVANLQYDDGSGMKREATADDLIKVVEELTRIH

[2] = test system: MOLM13 cells; assay: MTT cell viability assay in MOLM13 cells; assay type: cell-based, human
Procedure: The effect of DEG-7 and DEG-35 were evaluated on cell viability in MOLM13 cells.

[3] = molecular target: GSPT1 (Homo sapiens, UniProt P15170+Q96SW2); assay: Western blot, GSPT1 levels in MOLM13 cells; assay type: cell-based; design: endogenous in cells; host or cells: MOLM13
GSPT1, sequence (P15170 whole entry): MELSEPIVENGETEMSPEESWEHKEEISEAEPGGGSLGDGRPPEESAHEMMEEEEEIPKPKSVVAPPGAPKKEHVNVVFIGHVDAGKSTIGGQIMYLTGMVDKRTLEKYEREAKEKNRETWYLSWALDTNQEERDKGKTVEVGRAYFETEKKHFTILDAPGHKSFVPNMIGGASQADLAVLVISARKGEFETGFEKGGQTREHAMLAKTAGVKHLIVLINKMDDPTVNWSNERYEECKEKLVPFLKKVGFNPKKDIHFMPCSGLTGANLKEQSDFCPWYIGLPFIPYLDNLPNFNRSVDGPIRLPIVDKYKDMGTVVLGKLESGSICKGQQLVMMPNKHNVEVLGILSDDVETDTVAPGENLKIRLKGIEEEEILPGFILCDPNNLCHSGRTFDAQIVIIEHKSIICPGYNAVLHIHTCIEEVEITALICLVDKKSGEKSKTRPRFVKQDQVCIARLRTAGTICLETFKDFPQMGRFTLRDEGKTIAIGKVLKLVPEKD
GSPT1, sequence (Q96SW2 whole entry): as the sequence (Q96SW2 whole entry, further chain) above
GSPT1, sequence (Q16531 whole entry partner): as the sequence (Q16531 whole entry partner) above
Procedure: as §1

[4] = molecular target: T2, IKZF1 (Homo sapiens, UniProt Q13422); assay: Western blot, IKZF1 levels in MOLM13 cells; assay type: cell-based
T2 construct: endogenous in cells; host or cells: MOLM13
T2 sequence (Q96SW2 whole entry partner): as the sequence (Q96SW2 whole entry, further chain) above
T2 sequence (Q16531 whole entry partner): as the sequence (Q16531 whole entry partner) above
T2 sequence (Q13422 whole entry): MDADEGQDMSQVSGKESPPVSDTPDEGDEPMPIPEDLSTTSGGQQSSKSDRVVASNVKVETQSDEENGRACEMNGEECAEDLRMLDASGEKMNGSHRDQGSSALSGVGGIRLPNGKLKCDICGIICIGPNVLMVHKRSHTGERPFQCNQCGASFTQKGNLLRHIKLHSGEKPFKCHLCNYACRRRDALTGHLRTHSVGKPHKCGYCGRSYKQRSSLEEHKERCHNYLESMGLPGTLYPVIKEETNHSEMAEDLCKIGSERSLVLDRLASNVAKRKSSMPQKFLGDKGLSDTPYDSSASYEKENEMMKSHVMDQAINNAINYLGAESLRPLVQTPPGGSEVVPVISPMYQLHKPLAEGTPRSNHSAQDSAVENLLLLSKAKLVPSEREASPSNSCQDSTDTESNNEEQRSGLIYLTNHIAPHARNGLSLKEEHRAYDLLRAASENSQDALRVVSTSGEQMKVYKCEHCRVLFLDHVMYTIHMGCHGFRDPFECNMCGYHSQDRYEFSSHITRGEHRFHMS
Excerpt: DEG-37 is also a suitable lead compound for IKZF2 targeted degradation (FIG. 4).

[5] = test system: KASUMI; assay: Cell viability, antiproliferation, apoptosis, differentiation in KASUMI cells; assay type: cell-based
[6] = test system: over 800 cancer cell lines; assay: PRISM screen against over 800 cancer cell lines; assay type: cell-based; conditions: MOLM13 cell line
Excerpt: DEG-7 and DEG-35 were submitted to the Broad Institute's PRISM (Profiling Relative Inhibition Simultaneously in Mixtures) screen to be evaluated against over 800 cancer cell lines. The initial screen identified cancer cell lines that were responsive to DEG-7 and DEG-35 treatment. […] Several diffuse large B-cell lymphoma (DLBCL), acute myeloid leukemia (AML), and T-cell acute lymphoblastic leukemia (T-ALL) cell lines responded to DEG-35 in a dose-dependent manner. Of the top ten cell lines that responded to DEG-35 treatment, three were DLBCL cell lines, one was an AML cell line (MOLM13), and one was a T-ALL cell line.

[7] = test system: NOMO1; assay: Cell viability, antiproliferation, apoptosis, differentiation in NOMO1 cells; assay type: cell-based
[8] = test system: MOLM13 cells; assay: Differentiation in MOLM13 cells; assay type: cell-based, human
[9] = test system: MOLM13 cells; assay: Apoptosis markers in MOLM13 cells; assay type: cell-based, human
[10] = molecular target: T1, IKZF2; conditions: background statement; cited from earlier work
Target sequence in this assay (Q9UKS7 whole entry): as the sequence (Q9UKS7 whole entry) above
Target sequence in this assay (Q96SW2 whole entry, further chain): as the sequence (Q96SW2 whole entry, further chain) above

O=C1CCC(N2Cc3cc(NCc4ccc5oc6ccccc6c5c4)ccc3C2=O)C(=O)N1 (stereo not drawn) [DEG-37, 3-(5-((dibenzo[b,d]furan-2-ylmethyl)amino)-1-oxoisoindolin-2-yl)piperidine-2,6-dione]
IKZF2 degradation ([1]; 25 μM): selectively degrade IKZF2; also recorded: degrades IKZF2 | antiproliferative activity (in words) ([2]; MOLM13 / AML cells): milder antiproliferative effects; also recorded: possesses antiproliferative effects | effect on GSPT1 levels [3]: minimally effect | effect on IKZF1 levels [4]: minimally effect

COc1ccc2cc(CNc3ccc4c(c3)CN(C3CCC(=O)NC3=O)C4=O)ccc2c1 (stereo not drawn) [DEG-7, 3-(5-(((6-methoxynaphthalen-2-yl)methyl)amino)-1-oxoisoindolin-2-yl)piperidine-2,6-dione]
effect on cell viability, antiproliferation, apoptosis, or differentiation [5]: no observed effect | IKZF2 degradation ([1]; analog screening, concentration not given): robust IKZF2 degradation; also recorded: potent degraders of IKZF2 | sensitivity of MOLM13 in PRISM screen [6]: sensitive | effect on cell viability, antiproliferation, apoptosis, or differentiation [7]: no observed effect | induction of differentiation [8]: induced differentiation; also recorded: more efficient at inducing differentiation than DEG-35 | IC50 ([2]; MOLM13 cells): 4.5 µM | induction of apoptosis markers [9]: induced apoptosis markers

Nc1cccc2c1CN(C1CCC(=O)NC1=O)C2=O (stereo not drawn) [lenalidomide]
IKZF2 degradation [10]: not degraders of IKZF2
